Test results published in PubChem BioAssay (NCI).
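Grown in 96-well plates, cells were treated for 48 hours with each compound at five concentrations. Insufficient inhibition: endpoint recorded as highest concentration tested. GI50 is the concentration that inhibits growth by half. At the TGI there is no net growth.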

Experiments:
Experiment in all cases: NCI-60 cell line screen, 48 h
SK-MEL-28 melanoma = tested on: SK-MEL-28 melanoma
RPMI-8226 leukemia = tested on: RPMI-8226 leukemia
OVCAR-3 ovarian = tested on: OVCAR-3 ovarian
NCI-H23 lung = tested on: NCI-H23 lung
MCF7 breast = tested on: MCF7 breast
UACC-62 melanoma = tested on: UACC-62 melanoma
LOX IMVI melanoma = tested on: LOX IMVI melanoma
RXF 393 renal = tested on: RXF 393 renal
SW-620 colon = tested on: SW-620 colon
UACC-257 melanoma = tested on: UACC-257 melanoma
T-47D breast = tested on: T-47D breast
EKVX NSCLC = tested on: EKVX NSCLC
OVCAR-8 ovarian = tested on: OVCAR-8 ovarian
HCT-116 colon = tested on: HCT-116 colon
SK-MEL-5 melanoma = tested on: SK-MEL-5 melanoma
CCRF-CEM leukemia = tested on: CCRF-CEM leukemia
SK-MEL-2 melanoma = tested on: SK-MEL-2 melanoma
HOP-92 NSCLC = tested on: HOP-92 NSCLC
SNB-19 CNS = tested on: SNB-19 CNS
HCC-2998 colon = tested on: HCC-2998 colon
SR leukemia = tested on: SR leukemia
NCI/ADR-RES ovarian = tested on: NCI/ADR-RES ovarian
KM12 colon = tested on: KM12 colon
OVCAR-5 ovarian = tested on: OVCAR-5 ovarian
SNB-75 CNS = tested on: SNB-75 CNS
ACHN renal = tested on: ACHN renal
PC-3 prostate = tested on: PC-3 prostate
DU-145 prostate = tested on: DU-145 prostate
SN12C renal = tested on: SN12C renal
HOP-62 NSCLC = tested on: HOP-62 NSCLC
NCI-H522 lung = tested on: NCI-H522 lung
MOLT-4 leukemia = tested on: MOLT-4 leukemia
CAKI-1 renal = tested on: CAKI-1 renal
SF-295 CNS = tested on: SF-295 CNS
A549 NSCLC = tested on: A549 NSCLC
HT29 colon = tested on: HT29 colon
A498 renal = tested on: A498 renal
M14 melanoma = tested on: M14 melanoma
K-562 leukemia = tested on: K-562 leukemia
MALME-3M melanoma = tested on: MALME-3M melanoma
MDA-MB-231 breast = tested on: MDA-MB-231 breast
COLO 205 colon = tested on: COLO 205 colon
SF-539 CNS = tested on: SF-539 CNS
HS 578T breast = tested on: HS 578T breast
786-0 renal = tested on: 786-0 renal
NCI-H460 lung = tested on: NCI-H460 lung
OVCAR-4 ovarian = tested on: OVCAR-4 ovarian
SK-OV-3 ovarian = tested on: SK-OV-3 ovarian
UO-31 renal = tested on: UO-31 renal
HL-60(TB) leukemia = tested on: HL-60(TB) leukemia
NCI-H226 lung = tested on: NCI-H226 lung
MDA-MB-435 = tested on: MDA-MB-435
IGROV1 ovarian = tested on: IGROV1 ovarian
BT-549 breast = tested on: BT-549 breast
SF-268 CNS = tested on: SF-268 CNS

For `O=C1c2ccc3c4c(ccc(c24)C(=O)N1CCCNCc1ccccc1F)C(=O)N(CCCNCc1ccccc1F)C3=O`, the GI50 (SK-MEL-28 melanoma) was 210 nM, the TGI (SK-MEL-28 melanoma) was 465 nM and the GI50 (RPMI-8226 leukemia) was 272 nM. It also gave a TGI (RPMI-8226 leukemia) of 818 nM, a GI50 (OVCAR-3 ovarian) of 189 nM and a TGI (OVCAR-3 ovarian) of 557 nM. The GI50 (NCI-H23 lung) was 171 nM, the TGI (NCI-H23 lung) was 369 nM and the GI50 (MCF7 breast) was 109 nM. It also gave a TGI (MCF7 breast) of 359 nM, a GI50 (UACC-62 melanoma) of 179 nM and a TGI (UACC-62 melanoma) of 335 nM. The GI50 (LOX IMVI melanoma) was 121 nM, the TGI (LOX IMVI melanoma) was 317 nM and the GI50 (RXF 393 renal) was 138 nM. For the same compound, the TGI (RXF 393 renal) was 274 nM, the GI50 (SW-620 colon) was 75.4 nM and the TGI (SW-620 colon) was 274 nM. It also gave a GI50 (UACC-257 melanoma) of 172 nM, a TGI (UACC-257 melanoma) of 340 nM and a GI50 (T-47D breast) of 194 nM. For the same compound, the TGI (T-47D breast) was 417 nM, the GI50 (EKVX NSCLC) was 171 nM and the TGI (EKVX NSCLC) was 331 nM. The GI50 (OVCAR-8 ovarian) was 95.4 nM, the TGI (OVCAR-8 ovarian) was 422 nM and the GI50 (HCT-116 colon) was 67.6 nM. It also gave a TGI (HCT-116 colon) of 303 nM, a GI50 (SK-MEL-5 melanoma) of 163 nM and a TGI (SK-MEL-5 melanoma) of 299 nM. For the same compound, the GI50 (CCRF-CEM leukemia) was 166 nM, the GI50 (SK-MEL-2 melanoma) was 192 nM and the TGI (SK-MEL-2 melanoma) was 366 nM. It also gave a GI50 (HOP-92 NSCLC) of 238 nM, a TGI (HOP-92 NSCLC) of 566 nM and a GI50 (SNB-19 CNS) of 136 nM. For the same compound, the TGI (SNB-19 CNS) was 275 nM, the GI50 (HCC-2998 colon) was 158 nM and the TGI (HCC-2998 colon) was 312 nM. For the same compound, the GI50 (SR leukemia) was 123 nM, the TGI (SR leukemia) was 614 nM and the GI50 (NCI/ADR-RES ovarian) was 206 nM. The TGI (NCI/ADR-RES ovarian) was 726 nM, the GI50 (KM12 colon) was 127 nM and the TGI (KM12 colon) was 285 nM. It also gave a GI50 (OVCAR-5 ovarian) of 200 nM, a TGI (OVCAR-5 ovarian) of 449 nM and a GI50 (SNB-75 CNS) of 164 nM. The TGI (SNB-75 CNS) was 320 nM, the GI50 (ACHN renal) was 127 nM and the TGI (ACHN renal) was 563 nM. The GI50 (PC-3 prostate) was 228 nM, the TGI (PC-3 prostate) was 658 nM and the GI50 (DU-145 prostate) was 154 nM. The TGI (DU-145 prostate) was 287 nM, the GI50 (SN12C renal) was 144 nM and the TGI (SN12C renal) was 296 nM. For the same compound, the GI50 (HOP-62 NSCLC) was 151 nM, the TGI (HOP-62 NSCLC) was 331 nM and the GI50 (NCI-H522 lung) was 154 nM. The TGI (NCI-H522 lung) was 298 nM, the GI50 (MOLT-4 leukemia) was 144 nM and the TGI (MOLT-4 leukemia) was 544 nM. The GI50 (CAKI-1 renal) was 187 nM, the TGI (CAKI-1 renal) was 495 nM and the GI50 (SF-295 CNS) was 176 nM. It also gave a TGI (SF-295 CNS) of 409 nM, a GI50 (A549 NSCLC) of 107 nM and a TGI (A549 NSCLC) of 294 nM. For the same compound, the GI50 (HT29 colon) was 49.4 nM, the TGI (HT29 colon) was 203 nM and the GI50 (A498 renal) was 310 nM. It also gave a TGI (A498 renal) of 1720 nM, a GI50 (M14 melanoma) of 152 nM and a TGI (M14 melanoma) of 293 nM. The GI50 (K-562 leukemia) was 209 nM, the TGI (K-562 leukemia) was 5520 nM and the GI50 (MALME-3M melanoma) was 151 nM. For the same compound, the TGI (MALME-3M melanoma) was 299 nM, the GI50 (MDA-MB-231 breast) was 250 nM and the TGI (MDA-MB-231 breast) was 717 nM. It also gave a GI50 (COLO 205 colon) of 86.3 nM, a TGI (COLO 205 colon) of 208 nM and a GI50 (SF-539 CNS) of 208 nM. The TGI (SF-539 CNS) was 464 nM, the GI50 (HS 578T breast) was 523 nM and the TGI (HS 578T breast) was 2860 nM. The GI50 (786-0 renal) was 217 nM, the TGI (786-0 renal) was 587 nM and the GI50 (NCI-H460 lung) was 154 nM. For the same compound, the TGI (NCI-H460 lung) was 504 nM, the GI50 (OVCAR-4 ovarian) was 109 nM and the TGI (OVCAR-4 ovarian) was 237 nM. It also gave a GI50 (SK-OV-3 ovarian) of 249 nM, a TGI (SK-OV-3 ovarian) of 635 nM and a GI50 (UO-31 renal) of 194 nM. The TGI (UO-31 renal) was 468 nM, the GI50 (HL-60(TB) leukemia) was 239 nM and the TGI (HL-60(TB) leukemia) was 542 nM. The GI50 (NCI-H226 lung) was 210 nM, the TGI (NCI-H226 lung) was 482 nM and the GI50 (MDA-MB-435) was 175 nM. The TGI (MDA-MB-435) was 359 nM, the GI50 (IGROV1 ovarian) was 180 nM and the TGI (IGROV1 ovarian) was 543 nM. For the same compound, the GI50 (BT-549 breast) was 317 nM, the TGI (BT-549 breast) was 767 nM and the GI50 (SF-268 CNS) was 208 nM. It also gave a TGI (SF-268 CNS) of 534 nM.
